Results: publication PMC11273260

Assays:
[1] = test system: MCF-7 breast carcinoma cell line; test: MTT cytotoxic activity against MCF-7 breast carcinoma cell line; conditions: Homo sapiens, MCF7, read-out: IC50 (μM) MCF-7
EGFR kinase = biological target: T1, EGFR kinase (Homo sapiens, UniProt P00533); test: EGFR-TK inhibition assay (BPS Bioscience EGFR Kinase Assay Kit); type: biochemical
T1 construct: purchased BPS Bioscience 40321
Excerpt: S4.2.1. Cytotoxic activity evaluation
adenocarcinoma (MCF-7) cell line.
Dimethyl sulphoxide (DMSO) in
S4.2.2. EGFR kinase Assay

p53 = test: Apoptotic marker determination by qRT-PCR: p53; type: cell-based; conditions: MCF-7 cells, 2.71 μM, 48 h, compared to DMSO controls
Excerpt: (§1) p53 is a transcription factor that both initiates and suppresses a number of target genes involved in cancer progression and apoptosis.[40] The p53 protein level increase during cellular stress and cytotoxic drugs by increased transcription or increased stability due to post-translational modifications such as phosphorylation.[41] The ability of p53 to modulate caspase activation and apoptosis induction is critical to its role as tumor suppressor.[42] Coordinately, p53 activation promotes the loss of mitochondrial potential ultimately leading to caspase activation and apoptosis.[43] […] An increase in the level of p53 was detected in the tested cell line compared with controls at 48 h. The increased expression of p53 level was coupled with increase in the level of caspase 9 in compound 6h-treated MCF-7 cell line at 48 h. The levels of p53 and caspase 9 were increased by 7.4- and 8.7-fold, respectively compared with controls (Fig. 5).
(§2) MCF-7 cells were treated with 2.71 μM of tested hybrid for 48 h before qRT-PCR measurement and compared to untreated controls. (A) p53 level; (B) caspase 9 level.

MCF-7 cells [2] = test: Cell cycle analysis by flow cytometry (PI staining); type: cell-based
Method: It is well documented that most tyrosine kinase inhibitors exert strong antiproliferative and pro-apoptotic effect.[38] […] These findings are in agreement with the previously observed for EGFR-TK structural analogues.[39]
S4.2.3. Cell cycle analysis of compound 6h
Cell cycle analysis in MCF-7 cells was investigated using fluorescent […] (BioVision EZCellTM Cell Cycle Analysis Kit Catalog #K920) by flow cytometry assay. MCF-7 cells at a density of 2 × 10^5 per well were harvested and washed twice in PBS. After that, the cells were incubated at 37 °C and 5% CO2. The medium was incubated with the tested compound 6h at the IC50 (µM) for 48 h, washed twice in PBS, fixed with 70% ethanol, rinsed again with PBS. Afterward, medium was stained with DNA fluorochrome PI for 15 min at 37 °C. The samples were immediately analyzed using Facs Calibur flow cytometer (Becton and Dickinson, Heidelberg, […]
S4.2.4. Apoptosis assay for compound 6h
(1 picture or pasted object on this page, not shown here)

MCF-7 cells [3] = test: Annexin V FITC/PI apoptosis staining assay by flow cytometry; type: cell-based; conditions: 2.71 μM, 48 h
Excerpt: In addition, an increase in the primary apoptotic cells was also observed. It is noteworthy that, the percentage of primary apoptosis was rise from 0.39 to 9.55% as compared to DMSO control (Fig. 4). According to these findings, it could be concluded that this set of compounds could halt MCF-7 cells in G1 phase and provoke apoptotic cellular death.
Apoptosis in MCF-7 cells was investigated using fluorescent Annexin V-FITC/ PI detection kit (BioVision Annexin V-FITC Apoptosis Detection Kit, Catalog #: K101) by flow cytometry assay. MCF-7 cells at a density of 2 × 10^5 per well were treated with compound 6h at the IC50 (µM) for 48 h, then the cells were harvested and stained with Annexin V-FITC/ PI dye for 15 min in the dark at 37 °C. The samples were immediately analyzed using FACS Calibur flow cytometer (Becton and Dickinson, […]

caspase 9 = test: Apoptotic marker determination by qRT-PCR: caspase 9; type: cell-based; conditions: MCF-7 cells, 2.71 μM, 48 h, compared to DMSO controls
Excerpt: as §1, §2

T1 sequence (P00533 25-1210): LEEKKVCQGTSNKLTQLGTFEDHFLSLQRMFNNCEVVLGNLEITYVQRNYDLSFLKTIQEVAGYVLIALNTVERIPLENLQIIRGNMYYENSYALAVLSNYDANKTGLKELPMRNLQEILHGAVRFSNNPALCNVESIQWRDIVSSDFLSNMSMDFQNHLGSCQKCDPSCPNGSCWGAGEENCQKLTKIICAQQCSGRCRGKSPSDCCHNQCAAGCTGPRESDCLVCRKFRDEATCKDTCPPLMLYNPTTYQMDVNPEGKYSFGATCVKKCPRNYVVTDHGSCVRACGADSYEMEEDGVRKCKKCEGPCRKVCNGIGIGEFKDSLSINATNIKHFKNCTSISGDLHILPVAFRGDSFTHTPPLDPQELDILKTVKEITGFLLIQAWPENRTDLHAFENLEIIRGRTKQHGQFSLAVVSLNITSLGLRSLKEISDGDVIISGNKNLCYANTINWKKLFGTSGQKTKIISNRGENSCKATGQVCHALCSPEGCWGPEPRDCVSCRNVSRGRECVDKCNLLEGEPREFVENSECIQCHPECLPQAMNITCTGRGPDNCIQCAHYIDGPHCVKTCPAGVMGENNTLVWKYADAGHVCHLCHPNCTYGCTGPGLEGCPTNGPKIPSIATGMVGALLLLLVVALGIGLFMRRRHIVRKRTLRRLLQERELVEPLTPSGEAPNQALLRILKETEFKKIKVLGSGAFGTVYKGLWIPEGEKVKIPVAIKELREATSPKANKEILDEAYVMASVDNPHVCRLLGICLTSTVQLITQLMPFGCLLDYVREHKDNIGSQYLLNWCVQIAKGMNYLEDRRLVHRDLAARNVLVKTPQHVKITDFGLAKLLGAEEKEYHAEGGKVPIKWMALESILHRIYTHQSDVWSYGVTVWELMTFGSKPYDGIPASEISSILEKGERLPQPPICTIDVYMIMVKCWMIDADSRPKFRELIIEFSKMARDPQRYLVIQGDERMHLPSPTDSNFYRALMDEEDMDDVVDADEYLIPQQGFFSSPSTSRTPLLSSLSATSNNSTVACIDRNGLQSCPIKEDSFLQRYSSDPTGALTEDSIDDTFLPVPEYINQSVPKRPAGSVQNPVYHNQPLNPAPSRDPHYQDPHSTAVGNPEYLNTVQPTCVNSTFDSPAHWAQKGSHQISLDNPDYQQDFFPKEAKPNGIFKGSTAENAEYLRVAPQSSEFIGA

Structure (SMILES): COc1ccc(C(=O)N/C(=C\c2ccc(OC)c(OC)c2)C(=O)NNC(=O)c2cc(-c3ccc(Br)cc3)nc3ccccc23)cc1 [Compound 6b, (Z)-N-(3-(2-(2-(4-Bromophenyl)quinoline-4-carbonyl)hydrazinyl)-1-(3,4-dimethoxyphenyl)-3-oxoprop-1-en-2-yl)-4-methoxybenzamide]
- melting point: 235 to 237 °C
- IC50 [1]: 5.94 ± 0.17 µM

Structure (SMILES): COc1ccc(C(=O)N/C(=C\c2cc(Br)c(OC(C)=O)c(Br)c2)C(=O)NNC(=O)c2cc(-c3ccc(Br)cc3)nc3ccccc23)cc1 [Compound 6i, (Z)-2,6-Dibromo-4-(3-(2-(2-(4-bromophenyl)quinoline-4-carbonyl)hydrazinyl)-2-(4-methoxybenzamido)-3-oxoprop-1-enyl)phenyl acetate]
- melting point: 217 to 219 °C
- IC50 [1]: 8.77 ± 0.28 µM

Structure (SMILES): COc1ccc(C(=O)N/C(=C\c2ccc(F)cc2)C(=O)NNC(=O)c2cc(-c3ccc(Br)cc3)nc3ccccc23)cc1 [Compound 6e, (Z)-N-(3-(2-(2-(4-Bromophenyl)quinoline-4-carbonyl)hydrazinyl)-1-(4-fluorophenyl)-3-oxoprop-1-en-2-yl)-4-methoxybenzamide]
- melting point: 258 to 260 °C
- IC50 [1]: 21.2 ± 0.68 µM

Structure (SMILES): COc1cccc2c1C(=O)c1c(O)c3c(c(O)c1C2=O)C[C@@](O)(C(=O)CO)C[C@@H]3O[C@H]1C[C@H](N)[C@H](O)[C@H](C)O1 [Dox, Doxorubicin, reference compound]
- IC50 [1]: 6.18 ± 0.2 µM

Structure (SMILES): COc1ccc(C(=O)N/C(=C\c2ccco2)C(=O)NNC(=O)c2cc(-c3ccc(Br)cc3)nc3ccccc23)cc1 [Compound 5, (Z)-N-(3-(2-(2-(4-Bromophenyl)quinoline-4-carbonyl)hydrazinyl)-1-(furan-2-yl)-3-oxoprop-1-en-2-yl)-4-methoxybenzamide]
- melting point: 257 to 259 °C
- IC50 [1]: 12.5 ± 0.4 µM

Structure (SMILES): COc1ccc(C(=O)N/C(=C\c2ccc([N+](=O)[O-])cc2)C(=O)NNC(=O)c2cc(-c3ccc(Br)cc3)nc3ccccc23)cc1 [Compound 6h, (Z)-N-(3-(2-(2-(4-Bromophenyl)quinoline-4-carbonyl)hydrazinyl)-1-(4-nitrophenyl)-3-oxoprop-1-en-2-yl)-4-methoxybenzamide]
- IC50 (EGFR kinase): 0.22 µM
- increase of p53 level vs controls (p53): 7.4 fold
- G1 phase arrest, fold more than DMSO controls (MCF-7 cells [2]; 2.71 μM): 1.3 fold
- percentage of cells in G2/M phase (MCF-7 cells [2]; 2.71 μM (IC50) of compound, 48 h, DMSO control 15.56%): 9.37%
- percentage of cells in S phase (MCF-7 cells [2]; 2.71 μM (IC50) of compound, 48 h, DMSO control 37.51%): 28.48%
- proportion of cells in G1 phase (MCF-7 cells [2]; 2.71 μM (IC50) of compound, 48 h, DMSO control 46.93%): 62.15%
- percentage of secondary cellular apoptosis (MCF-7 cells [3]; DMSO control 0.11%): 17.78%
- percentage of primary apoptosis (MCF-7 cells [3]; DMSO control 0.39%): 9.55%
- IC50 [1]: 2.71 ± 0.09 µM
- increase of caspase 9 level vs controls (caspase 9): 8.7 fold

Structure (SMILES): COc1ccc(C(=O)N/C(=C\c2ccc(Cl)cc2)C(=O)NNC(=O)c2cc(-c3ccc(Br)cc3)nc3ccccc23)cc1 [Compound 6f, (Z)-N-(3-(2-(2-(4-Bromophenyl)quinoline-4-carbonyl)hydrazinyl)-1-(4-chlorophenyl)-3-oxoprop-1-en-2-yl)-4-methoxybenzamide]
- melting point: 276 to 278 °C
- IC50 [1]: 26 ± 0.84 µM

Structure (SMILES): COc1ccc(C(=O)N/C(=C\c2cc(OC)c(OC)c(OC)c2)C(=O)NNC(=O)c2cc(-c3ccc(Br)cc3)nc3ccccc23)cc1 [Compound 6d, (Z)-N-(3-(2-(2-(4-Bromophenyl)quinoline-4-carbonyl)hydrazinyl)-3-oxo-1-(3,4,5-trimethoxyphenyl)prop-1-en-2-yl)-4-methoxybenzamide]
- melting point: 208 to 210 °C
- IC50 [1]: 17.1 ± 0.55 µM

Structure (SMILES): COc1ccc(C(=O)N/C(=C\c2ccc(OC)c(OC)c2OC)C(=O)NNC(=O)c2cc(-c3ccc(Br)cc3)nc3ccccc23)cc1 [Compound 6c, (Z)-N-(3-(2-(2-(4-Bromophenyl)quinoline-4-carbonyl)hydrazinyl)-3-oxo-1-(2,3,4-trimethoxyphenyl)prop-1-en-2-yl)-4-methoxybenzamide]
- melting point: 192 to 194 °C
- IC50 [1]: 51.8 ± 1.54 µM

Structure (SMILES): COc1ccc(C(=O)N/C(=C\c2ccc(C)cc2)C(=O)NNC(=O)c2cc(-c3ccc(Br)cc3)nc3ccccc23)cc1 [Compound 6a, (Z)-N-(3-(2-(2-(4-Bromophenyl)quinoline-4-carbonyl)hydrazinyl)-3-oxo-1-p-tolylprop-1-en-2-yl)-4-methoxybenzamide]
- IC50 (EGFR kinase): 0.31 µM
- melting point: 246 to 248 °C
- IC50 [1]: 3.39 ± 0.11 µM

Structure (SMILES): COc1ccc(C(=O)N/C(=C\c2ccc(Br)cc2)C(=O)NNC(=O)c2cc(-c3ccc(Br)cc3)nc3ccccc23)cc1 [Compound 6g, (Z)-N-(1-(4-Bromophenyl)-3-(2-(2-(4-bromophenyl)quinoline-4-carbonyl)hydrazinyl)-3-oxoprop-1-en-2-yl)-4-methoxybenzamide]
- melting point: 261 to 263 °C
- IC50 [1]: 39.1 ± 1.26 µM
